Data from US5158963A, “1-4-dihydropyridine derivative, process for preparing the same and pharmaceutical composition containing the same” (Kaken Pharmaceutical Co., Ltd., priority 1989, dated 1992).
“Also recorded” adds a separate entry of the source.

Columns and labels:
[1] = test system: tonic extensive convulsion (maximal electroshock-induced seizures); assay: Activity against maximal electroshock-induced seizures in mice; type: in vivo, mouse (Slc:ddy male mice); details: oral
Text: In each group six Slc: ddy male mice weighing 26 to 31 g (5 weeks) were employed. Sixty minutes after oral administration of a test compound, corneal electrodes which were wet by physiological saline were contacted with both eyes of a mouse. Then, appearance of tonic extensive convulsion (TE) caused by electrifying under a stimulation condition of 50 mA, 1000 V and 0.2 sec by means of the apparatus of Woodburg & Davenport (made by Kyoto Keisokuki) was judged as indication.
Each of diphenylhydantoin, the compounds Nos. 2, 4, 5, 6, 7, 50, 51 and 52 of the present invention (refer Table 1, hereinafter the same) and nimodipine was suspended in a 0.5% solution of methyl cellulose to subject the test. Flunarizine was suspended in a 5% solution of gum arabic to subject the test.

[2] = test system: immobility time of forced swimming test; assay: Activity against immobility time of forced swimming test in mice; type: in vivo, mouse (Slc:ICR male mice); details: oral
Protocol: In each group 6 Slc:ICR male mice weighing 25 to 32 g (5 weeks) were bred at the room temperature of 22° to 24° C. under an environment of 60% humidity for 1 week, and then the bred mice were subjected to the following test. The test was carried out by monitering action to voluntarily escape with TV camera when a mouse was put into a cylinder of which inner diameter was 11 cm wherein 17 cm of water being the temperature 25° C. as added. As indication immobility time for 6 minutes was measured. In the test mice were employed which were compulsorily swun for 6 minutes in once per day for continuous 3 day. The investigation for immobility time was carried out by measuring immobility time for 6 minutes 1 hour after oral administration of a test compound. Each of test compound was suspended in a 0.5% solution of methyl cellulose used as a control group. Significant difference is shown with the significance level (* : p<0.05) obtained by comparing data of control group by LSD method.

[3] = test system: decapitation induced hypoxia; assay: Activity against decapitation induced hypoxia in mice; type: in vivo, mouse (Slc:ddy male mice); details: oral
Protocol: In each group five Slc:ddy male mice weighing 20 to 22 g (4 weeks) were employed. Sixty minutes after oral administration of a test compound, mice were decapitated with a guillotine. After the decapitation, duration of gasping of head was measured with a timer (CT-916 Type, made by HATTORI SEIKO CO., LTD.) gearing into the guillotine.
Each of test compound was suspended in a 0.5% solution of methyl cellulose and administered. Inhibition rate was calculated by comparing with a 0.5% aqueous solution of methyl cellulose as control. That is, the inhibition rate was calculated by the following formula. [formula]

[4] = administered over an extended period of time; cited from earlier work
[5] = in vivo; cited from earlier work
[6] = test system: tonic extensive convulsion caused by pentylenetetrazole; assay: Activity against convulsion caused by pentylenetetrazole in mice; type: in vivo, mouse (Slc:ddy male mice); details: oral
Protocol: In each group 4-8 Slc:ddy male mice weighing 24 to 32 g (5 weeks) were bred at room temperature of 22° to 24° C. under an environment of 60% humidity for 1 week, and then the bred mice were subjected to the following test. The test was carried out as the following procedure. One hour after the oral administration of a test compound, 40 mg/kg of pentylenetetrazole was administered in a caudal vein. Appearance of tonic extensive convulsion caused by pentylenetetrazole was measured as indication, and anticonvulsive activity was examined. Each of test compound was suspended in a 0.5% solution of methyl cellulose used as a control group.

[7] = test system: blood pressure; assay: Activity for blood pressure in rats; type: in vivo, rat (Wister male rats); details: oral; for Blood pressure: 100 mg/kg; for activity for decreasing blood pressure (in words): normal rats
Protocol: In each group 4 Wister male rats weighing 200 to 300 g (10 to 15 weeks) were employed. The day before a test, rats were anesthetized with eter, and a polyethylene tube was inserted into aorta abdominalis of a rat. The other end of the polyethylene tube was led out of the rat's body. The led polyethylene tube was connected with a pressure transducer (RM-85, made by Yamamoto Kohden). Blood pressure was measured under a condition of no restriction.

[8] = Acute toxicity in mice; design: species or system mouse (Slc:ddy male mice); details: in vivo; mouse, oral administration, death rate after 7 days
Protocol: The compound No. 2 of the present invention was orally administered to 5-15 in each group Slc:ddy male mice weighing 24 to 32 g (5 weeks). With death rate after 7 days value of acute toxicity was measured.

[9] = Mus musculus, 1 h, 60 min before decapitation, duration of gasping vs control, read-out: Inhibition rate

Row | Compound | inhibitory activity against tonic extensive convulsion (share of cases) ([1]; 200 mg/kg) | effect on the immobility time (in words) ([2]; 200 mg/kg) | effect on immobility time of forced swimming test (in words) [2] | inhibition in vivo at 100 mg/kg ([3]; Mus musculus, 1 h, 100 mg/kg, 60 min before decapitation, duration of gasping vs control, read-out: Inhibition rate) [%] | inhibitory activity against tonic extensive convulsion (share of cases) ([1]; 100 mg/kg) | inhibition in vivo at 10 mg/kg [3, 9] [%] | inhibition in vivo at 30 mg/kg [3, 9] [%] | side effects caused by central nervous system inhibitory activity [4] | vasodepressor activity and coronary vasodilator activity [5] | effect on the immobility time (in words) ([2]; 100 mg/kg) | effect on tonic extensive convulsion caused by pentylenetetrazole (in words) [6] | Blood pressure ([7]; after 15 min.) [mmHg] | Blood pressure ([7]; after 30 min.) [mmHg] | Blood pressure ([7]; after 60 min.) [mmHg] | Blood pressure ([7]; after 120 min.) [mmHg] | activity for decreasing blood pressure (in words) [7] | effect in decapitation induced hypoxia (in words) [3] | LD50 at 168 h [8] [mg/kg] | inhibitory activity against tonic extensive convulsion (share of cases) ([1]; 50 mg/kg) | effect on the immobility time (in words) ([2]; 50 mg/kg)
1 | C#Cc1cccc(C2C(C(=O)OCC)=C(C)NC(C)=C2C(=O)OCC=C)c1 (stereo not drawn) [Compound No. 50, 5-Ethoxycarbonyl-3-allyloxycarbonyl-1,4-dihydro-2,6-dimethyl-4-(3-ethynylphenyl)pyridine] | all cases | showed the effect on the immobility time | immobility time of forced swimming test reduced | 31.1 |  |  |  |  |  |  |  |  |  |  |  |  |  |  |  | 
2 | Fc1ccc(C(c2ccc(F)cc2)N2CCN(C/C=C/c3ccccc3)CC2)cc1 [Flunarizine, reference compound] | five sixths |  | ineffective; also recorded: no effect |  | a third | 12.1 | 24.3 | Parkinson symptom and depression symptom |  |  |  |  |  |  |  |  |  |  |  | 
3 | COC(=O)C1=C(C)NC(C)=C(C(=O)OC)C1c1ccccc1[N+](=O)[O-] [Nifedipine, dimethyl 2,6-dimethyl-4-(2-nitrophenyl)-1,4-dihydropyridine-3,5-dicarboxylate] |  |  |  |  |  |  |  |  | strong |  |  |  |  |  |  |  |  |  |  | 
4 | C#Cc1cccc(C2C(C(=O)OCC)=C(C)NC(C)=C2C(=O)OCC)c1 [Compound No. 2, 3,5-Diethoxycarbonyl-1,4-dihydro-2,6-dimethyl-4-(3ethynylphenyl)pyridine] | all cases |  | immobility time of forced swimming test reduced |  | two thirds | 10.8 | 20.5 |  |  | showed the effect on the immobility time | inhibited the tonic extensive convulsion; also recorded: approximately the same extent of the effect of the positive control drug diphenylhydantoin; also recorded: stronger effect than the effect of nimodipine and the effect of nicardipine | 100.6 | 98.4 | 94.8 | 92.9 | very weak activity for decreasing blood pressure | same extent effect as that of flunarizine; also recorded: stronger effect than that of nimodipine and that of nicardipine | 534 |  | 
5 | C#Cc1cccc(C2C(C(=O)OCC)=C(C)NC(C)=C2C(=O)OC(C)C)c1 (stereo not drawn) [Compound No. 4, 5-Ethoxycarbonyl-3-isopropoxycarbonyl-1,4-dihydro-2,6-dimethyl-4-(3-ethynylphenyl)pyridine] |  | showed the effect on the immobility time | immobility time of forced swimming test reduced |  | five sixths | 8.8 | 25.7 |  |  | showed the effect on the immobility time |  | 100.1 | 97.2 | 93.4 | 90.5 | very weak activity for decreasing blood pressure | same extent effect as that of flunarizine; also recorded: stronger effect than that of nimodipine and that of nicardipine |  | two thirds | showed the effect on the immobility time
